Laboratory results from a melting point compilation (Tetko et al.; mined from patent text by program, amines drawn as free bases though some values may be those of a salt).

Row | SMILES | melting point [°C]
1 | CC1CCC(=NNc2ccccc2)c2ncc(C(=O)O)c(=O)n21 (single isomer, unassigned; (-)) | 255 to 256
2 | Cc1c(-c2ccc(OCc3ccccc3)cc2)n(Cc2ccc(OCCN3[C@H](C)CCC[C@@H]3C)cc2)c2ccc(OCc3ccccc3)cc12 | 106 to 107
3 | O=C1COC(CCOC(=O)c2ccccc2)(c2ccc(F)c(F)c2)CN1 (stereo not drawn) | 92
4 | CC(C)c1c(Cl)[nH]c(=O)[nH]c1=O | 250 to 251
5 | Fc1ccccc1NC(=S)Nc1ncccc1OCc1c(F)cccc1Cl | 145 to 147
6 | Cc1nc2cccc(S(=O)(=O)n3c(COC(C)(C)C(=O)O)cc4cc(C(F)(F)F)ccc43)c2s1 | 98 to 100
7 | C=Cc1ccc(S(N)(=O)=O)cc1 | 130 to 132
8 | COC(=O)c1ccc(OCCNC(=O)c2ccc(Cl)cc2)cc1 | 125 to 127
9 | O=C(C1CCC(Nc2ncc3ncnc(Nc4ccc(F)c(Cl)c4)c3n2)CC1)N1CCNCC1 (stereo not drawn) | 178 to 182
10 | CC[C@@H]1NC(=O)C[C@@]1(O)C1CC1 | 87 to 102
11 | Cc1nnc(-c2ccc3occ(-c4cccc(C#N)c4)c3c2)o1 | 204 to 205
12 | CC(=O)Nc1nc2c(Oc3cc(-c4ccc(C(F)(F)F)cc4NC(C)=O)ncn3)cccc2s1 | 259 to 261
13 | CCC(=O)c1cccc(S(N)(=O)=O)c1 | 152 to 153
14 | CC1=CC(OC(=O)c2ccc(N)c(N)c2)C(O)C(C)(C)CC1=O (stereo not drawn) | 136 to 137
15 | CC(C)N(C(=O)CN1C(=O)C(NC(=O)Nc2ccccc2)C(=O)N(c2ccccc2)c2ccccc21)c1ccccc1 (stereo not drawn) | 230 to 235
16 | Cc1cccc(C(=O)c2ccc(O)cc2)c1C | 155 to 158
17 | Cc1c(F)c(N2CCC(n3cc(-c4ccccc4)nn3)C2)c(F)c2c1c(=O)c(C(=O)O)cn2C1CC1 (stereo not drawn) | 221
18 | Cc1cc(F)ccc1-c1cncc(OC2SCC(O)C(O)C2O)c1 (stereo not drawn) | 217
19 | CCOC(=O)c1ccc2[nH]c([Si](C)(C)C)c(CCCO[Si](C)(C)C(C)(C)C)c2c1 | 115 to 116
20 | CC1(C(=O)c2c[nH]c3ncc(Br)nc23)CCCCC1 | 198 to 199
21 | CCOC(=O)CCCCCCCn1cnc(-c2ccc(O)cc2)c1-c1ccc(O)cc1 | 186 to 187
22 | CN(C)CCNC(=O)c1ccc(-c2ccc3nnn(Cc4ccc5ncccc5c4)c3n2)cc1F | 122 to 125
23 | Cc1cnc2ccc(N)cc2n1 | 170 to 173
24 | Nc1cccc(/C=C/c2nc(C3CCCC3)cs2)c1 | 59 to 61

Row | SMILES | melting point [°C]
25 | C/C(NC1CCCCC1)=C(\C#N)C(N)=S | 142 to 144
26 | CC(C)(C)OC(=O)NCCCCCn1c(=O)c2cccc3ncc(c1=O)n32 | 82 to 83
27 | O=C1OCC2CCC1(c1ccc(Cl)cc1Cl)O2 (stereo not drawn) | 136 to 137
28 | CC(C)(C)OC(=O)N=C(c1ccc(C(=O)Nc2ccc(C(=O)NCCC(=O)OCc3ccccc3)cc2)cc1)N(C(=O)OC(C)(C)C)C(=O)OC(C)(C)C | 164 to 165
29 | CCCCOc1cc(CCC(=O)O)ccc1CCCc1ccc(OCCCC)c(OC)c1 | 64
30 | COC(=O)Nc1ccc(OCCn2ccnc2)cc1 | 152 to 153
31 | N#Cc1cc(/C=C/C(=O)Nc2ccc(Br)cc2)ccc1F | 205 to 210
32 | Clc1ccc(Cc2ccc(-c3ccccc3)cc2)cc1 | 96
33 | COC(=O)C1CCC(=O)c2c(-c3ccc(Cl)cc3)noc2C1 (stereo not drawn) | 108 to 109
34 | CN1C(=O)c2ccccc2OC1(C)COc1ccc(N)cc1 (stereo not drawn) | 162 to 164
35 | Cc1cc(C)c2c(c1C)OC(=O)C2c1ccccc1 (stereo not drawn) | 129 to 130
36 | CC(=O)Nc1ccc(C(=O)CCC(=O)O)cc1Cl | 168 to 170
37 | O=C(Cc1ccccc1)Nc1ccccc1C(F)(F)F | 104
38 | C1=C(c2ccccc2)CCN(C2CC=C(c3ccccn3)CC2)C1 (stereo not drawn) | 143 to 144
39 | CC(=O)N1CCC(F)(Cc2c3c(nn2C)c(N)nc2ccccc23)CC1 | 241 to 243
40 | COc1ccc(CC(C(=O)Nc2nc3ccccc3o2)c2ccc(S(C)(=O)=O)cc2)cc1 (stereo not drawn) | 102 to 106
41 | CCc1c(C(C)C)nc(C(C)C)c(C(C)O)c1-c1ccc(F)cc1O (stereo not drawn) | 190 to 191
42 | O=C(O)c1cccc(C(=O)NCc2ccc(F)c(-c3cccc(CO)c3)c2)c1 | 169 to 171
43 | Oc1cccc2ccc3cccnc3c12 | 104
44 | CCCCc1nc2c(N)nc3ccccc3c2n1CCCCC(=O)N1CCOCC1 | 141 to 143
45 | CCC1c2cccn2-c2ccccc2N1S(=O)(=O)c1ccc(O)c(C)c1 (stereo not drawn) | 171 to 173
46 | O=C(O)c1cc(O)c(O)c([N+](=O)[O-])c1 | 224 to 226
47 | Cc1cccc2c1C(=O)N1CC[C@H]1C(=O)N2 | 159 to 160
48 | CC(=O)NCC(=O)N1CC1C#N (stereo not drawn) | 102 to 104
